Reference: the NIST ThermoML archive (doi:10.1016/j.tca.2015.07.010)
± gives the expanded uncertainty stated by the source.

## O=NN1CN(N=O)CN(N=O)C1 [1,3,5-trinitroso-1,3,5-triazacyclohexane]
Crystal 1
  Triple point temperature: 380.15 ± 2 K
Crystal 2
  Triple point temperature: 369.25 ± 2 K
